Reference: publication PMC5266543 (ACS infectious diseases, 2016)
Converted amounts (≈) assume the structure as drawn. “Also recorded” adds a separate entry of the source. Read-outs that look alike come from different tables or passages of the source. Marks after values point to notes of the source that are not given here.

Tests used:
M. tuberculosis H37Rv = test: microbe, parasite or virus in culture; assay type: cell-based, Mycobacterium tuberculosis; conditions: for MIC: Mycobacterium tuberculosis, H37RV, read-out: M. tuberculosis MIC
Dxr = conditions: cited from earlier work
Mtb Dxr = target: T1, Mtb Dxr (Mycobacterium tuberculosis, UniProt P9WNS1); assay type: biochemical; conditions: for IC50: read-out: Mtb Dxr IC50
T1 sequence (P9WNS1 1-413): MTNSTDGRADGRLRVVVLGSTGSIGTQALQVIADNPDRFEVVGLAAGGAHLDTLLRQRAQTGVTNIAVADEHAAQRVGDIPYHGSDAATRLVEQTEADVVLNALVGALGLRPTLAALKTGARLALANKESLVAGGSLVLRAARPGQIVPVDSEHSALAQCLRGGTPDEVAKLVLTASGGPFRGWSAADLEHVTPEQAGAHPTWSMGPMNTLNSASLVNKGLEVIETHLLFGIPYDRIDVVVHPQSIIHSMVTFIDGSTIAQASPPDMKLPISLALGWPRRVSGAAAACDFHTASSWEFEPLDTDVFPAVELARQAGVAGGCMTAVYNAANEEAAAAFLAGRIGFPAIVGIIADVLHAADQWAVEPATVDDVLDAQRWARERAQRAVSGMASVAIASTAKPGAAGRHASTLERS

Yp Dxr = Yp Dxr (Yersinia pestis, UniProt Q8ZH62); assay type: biochemical; conditions: for IC50: read-out: Yp Dxr IC50
Sequence of Yp Dxr (Q8ZH62 whole entry, looked up): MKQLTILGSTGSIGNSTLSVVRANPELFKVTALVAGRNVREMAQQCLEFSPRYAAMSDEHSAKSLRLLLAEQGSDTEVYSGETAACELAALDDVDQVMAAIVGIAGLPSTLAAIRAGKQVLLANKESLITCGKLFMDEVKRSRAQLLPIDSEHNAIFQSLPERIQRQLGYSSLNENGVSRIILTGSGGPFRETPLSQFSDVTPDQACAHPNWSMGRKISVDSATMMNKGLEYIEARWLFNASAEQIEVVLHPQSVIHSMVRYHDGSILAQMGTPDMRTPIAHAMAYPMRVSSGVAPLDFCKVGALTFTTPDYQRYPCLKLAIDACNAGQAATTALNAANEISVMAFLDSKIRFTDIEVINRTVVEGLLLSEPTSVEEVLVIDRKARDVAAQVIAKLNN

| SMILES | inhibition of Mtb Dxr (in words) (Mtb Dxr) | percent remaining enzyme activity at 100 µM (Mtb Dxr) (Mtb Dxr) | inhibition of Yp Dxr (in words) (Yp Dxr) | M. tuberculosis MIC (M. tuberculosis H37Rv) | other results |
| --- | --- | --- | --- | --- | --- |
| O=CN(O)CCCP(=O)(O)O [Compound 1, fosmidomycin, reference compound] |  |  |  |  | MIC (M. tuberculosis H37Rv): > 500 µg/mL; mechanism of inhibition (Dxr): competitive inhibitors with respect to DXP and uncompetitive relative to NADPH |
| CCCCC(=O)N(O)CCCP(=O)([O-])O.[Na+] [Compound 8a, Sodium hydrogen-3-(N-hydroxypentanamido)propyl phosphonate] | greatest inhibition |  |  |  |  |
| CCCCCCC(=O)N(O)CCCP(=O)([O-])O.[Na+] [Compound 8b, Sodium hydrogen-3-(N-hydroxyheptanamido)propyl phosphonate] | inhibited; also recorded: greatest inhibition | (43) ^* percent | inhibited; also recorded: most active |  | percent remaining enzyme activity at 100 µM (Yp Dxr) (Yp Dxr): (27) percent |
| O=C(CCC1CCCCC1)N(O)CCCP(=O)([O-])O.[Na+] [Compound 8d, Sodium hydrogen-3-(3-cyclohexyl-N-hydroxypropanamido)propyl phosphonate] |  |  |  | >200 (25) µg/mL |  |
| O=C(c1ccccc1)N(O)CCCP(=O)([O-])O.[Na+] [Compound 8e, Sodium hydrogen-3-(N-hydroxybenzamido)propyl phosphonate] |  | (70) percent | most active | ≥200 µg/mL | inhibitor modality (Lineweaver-Burk) (Yp Dxr): competitive with both NADPH and DXP; selectivity between Dxr homologs (Yp versus Mtb) (Yp Dxr): significantly more potent against Yp Dxr; Ki (Yp Dxr; read-out: Ki relative to DXP): 7.9 µM; Ki (Yp Dxr; read-out: Ki with respect to NADPH): 1.8 µM; IC50 (Yp Dxr): 4.45 µM |
| Cc1ccc(C(=O)N(O)CCCP(=O)([O-])O)cc1.[Na+] [Compound 8f, Sodium hydrogen-3-(N-hydroxy-4-methylbenzamido)propyl phosphonate] |  | (74) percent | most active |  | selectivity between Dxr homologs (Yp versus Mtb) (Yp Dxr): significantly more potent against Yp Dxr; IC50 (Yp Dxr): 16 µM |
| O=C(COc1ccc(Cl)cc1)N(O)CCCP(=O)([O-])O.[Na+] [Compound 8l, Sodium hydrogen-3-(2-(4-chlorophenoxy)-N-hydroxyacetamido)propyl phosphonate] |  |  |  | >200 (25) µg/mL |  |
| O=C(N(O)CCCP(=O)([O-])O)N(c1ccccc1)c1ccccc1.[Na+] [Compound 8n, Sodium hydrogen-3-(1-hydroxy-3,3-diphenylureido)propyl phosphonate] | ineffective |  | ineffective |  |  |
| CC(=O)N(CCCP(=O)([O-])O)OCc1ccc(C(C)C)cc1.[Na+] [Compound 16d, Sodium Hydrogen 3-(N-((4-isopropylbenzyl)oxy)acetamido)propyl phosphonate] | potent inhibitors; also recorded: greatest inhibition |  | potent inhibitors; also recorded: most active | 200 (25) µg/mL | IC50 (Mtb Dxr): 48.4 µM; selectivity between Dxr homologs (Yp versus Mtb) (Yp Dxr): more potent against Yp Dxr; IC50 (Yp Dxr): 1.19 µM |
| CC(=O)N(CCCP(=O)([O-])O)OC(C)c1ccccc1.[Na+] (stereo not shown) [Compound 16e, Sodium Hydrogen 3-(N-(1-phenylethoxy)acetamido)propyl phosphonate] | greatest inhibition | (38.1) percent | most active |  | percent remaining enzyme activity at 100 µM (Yp Dxr) (Yp Dxr): (19) percent |
| CC(=O)N(CCCP(=O)([O-])O)OCCc1ccc(O)cc1.[Na+] [Compound 16g, Sodium Hydrogen 3-(N-(4-hydroxyphenethoxy)acetamido)propyl phosphonate] |  | (59) percent | most active |  | percent remaining enzyme activity at 100 µM (Yp Dxr) (Yp Dxr): (22) percent; selectivity between Dxr homologs (Yp versus Mtb) (Yp Dxr): same trend |
| CC(=O)N(CCCP(=O)([O-])O)OCCCCc1ccccc1.[Na+] [Compound 16h, Sodium Hydrogen 3-(N-(4-phenylbutoxy)acetamido)propyl phosphonate] |  |  |  | ≥200 µg/mL |  |
| CC(=O)N(CCCP(=O)([O-])O)OCc1cccc2ccccc12.[Na+] [Compound 16i, Sodium Hydrogen 3-(N-(naphthalen-1-ylmethoxy)acetamido)propyl phosphonate] | greatest inhibition | (29) percent | most active |  | selectivity between Dxr homologs (Yp versus Mtb) (Yp Dxr): more potent against Yp Dxr; IC50 (Yp Dxr): 22.4 µM |
| CC(=O)N(CCCP(=O)([O-])O)OCc1ccc2ccccc2c1.[Na+] [Compound 16j, Sodium Hydrogen 3-(N-(naphthalen-2-ylmethoxy)acetamido)propyl phosphonate] | potent inhibitors; also recorded: greatest inhibition |  | potent inhibitors; also recorded: most active | ≥200 µg/mL | inhibitor modality (Lineweaver-Burk) (Mtb Dxr): competitive with both NADPH and DXP; Ki (Mtb Dxr; read-out: Ki relative to NADPH): 17.8 µM; Ki (Mtb Dxr; read-out: Ki with respect to DXP): 1 µM; IC50 (Mtb Dxr): 1.45 µM; IC50 (Yp Dxr): 0.33 µM |
| CC(=O)N(CCCP(=O)([O-])O)OCc1ccc(-c2ccccc2)cc1.[Na+] [Compound 16k, Sodium Hydrogen 3-(N-([1,1'-biphenyl]-4-ylmethoxy)acetamido)propyl phosphonate] | potent inhibitors; also recorded: greatest inhibition | (36.8) percent | potent inhibitors; also recorded: most active | 25 to 50 µg/mL | selectivity between Dxr homologs (Yp versus Mtb) (Yp Dxr): more potent against Yp Dxr; IC50 (Yp Dxr): 8.4 µM |
| CC(=O)N(CCCP(=O)([O-])O)OCc1ccc(-c2ccc(C(C)C)cc2)cc1.[Na+] [Compound 16p, Sodium Hydrogen 3-(N-((4'-isopropyl-[1,1'-biphenyl]-4-yl)methoxy)acetamido)propyl phosphonate] |  |  |  | 100 (6.25–12.5) µg/mL |  |
| CC(=O)N(CCCP(=O)([O-])O)OCc1ccc(-c2ccc(C(F)(F)F)cc2)cc1.[Na+] [Compound 16r, Sodium Hydrogen 3-(N-((4'-(trifluoromethyl)-[1,1'-biphenyl]-4-yl)methoxy)acetamido)propyl phosphonate] |  | (70) percent | most active |  | percent remaining enzyme activity at 100 µM (Yp Dxr) (Yp Dxr): (19) percent |
| CC(=O)N(CCCP(=O)(OCOC(=O)C(C)(C)C)OCOC(=O)C(C)(C)C)OCc1ccc(C(C)C)cc1 [Compound 17, [({[(2,2-dimethylpropanoyl)oxy]methoxy}[3-(N-{[4-(propan-2-yl)phenyl]methoxy}acetamido)propyl]phosphoryl)oxy]methyl 2,2-dimethyl propanoate] |  |  |  | 12.5 (6.25–12.5) µg/mL |  |
| CC(=O)N(CCCP(=O)(OCOC(=O)C(C)(C)C)OCOC(=O)C(C)(C)C)OCCCCc1ccccc1 [Compound 18, [({[(2,2-dimethylpropanoyl)oxy]methoxy}({3-[N-(4-phenylbutoxy)acetamido]propyl})phosphoryl)oxy]methyl 2,2-dimethylpropanoate] |  |  |  |  | MIC (M. tuberculosis H37Rv): 12.5 µg/mL (≈ 22.4 µM) |
| CC(=O)N(CCCP(=O)(OCOC(=O)C(C)(C)C)OCOC(=O)C(C)(C)C)OCc1ccc(-c2ccccc2)cc1 [Compound 19, [({[(2,2-dimethylpropanoyl)oxy]methoxy}(3-{N-[(4-phenylphenyl)methoxy]acetamido}propyl)phosphoryl)oxy]methyl 2,2-dimethyl propanoate] |  |  |  | 12.5 (3.13–6.25) µg/mL |  |
| CC(=O)N(CCCP(=O)(OCOC(=O)C(C)(C)C)OCOC(=O)C(C)(C)C)OCc1ccc2ccccc2c1 [Compound 20, [({[(2,2-dimethylpropanoyl)oxy]methoxy}({3-[N-(naphthalen-2-ylmethoxy)acetamido]propyl})phosphoryl)oxy]methyl 2,2-dimethylpropanoate] |  |  |  | 18.75 (4.7) µg/mL |  |
| CC(=O)N(CCCP(=O)(OCOC(=O)c1ccccc1)OCOC(=O)c1ccccc1)OCCCCc1ccccc1 [Compound 21, [({[(benzoyl)oxy]methoxy}({3-[N-(4-phenylbutoxy)acetamido]propyl})phosphoryl)oxy]methyl benzoate] |  |  |  |  | MIC (M. tuberculosis H37Rv): 25 µg/mL (≈ 41.8 µM) |
| NNC(=O)c1ccncc1 [INH, reference compound] |  |  |  | 0.01 µg/mL |  |
